Data as given in ChEMBL document CHEMBL1201862, “PubChem BioAssay data set” (2004).
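Cells were grown in 96-well plates and exposed to each compound for 48 hours at five concentrations; endpoints were interpolated linearly between bracketing concentrations, or set to the highest concentration if not reached. Abbreviation: GI50, concentration required for 50% inhibition of growth.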 The source made the active and inactive calls. Rule as the data show it: active = GI50 up to about 1.1 µM and inactive = higher.

How the values were obtained:
Test in all cases: NCI-60 cell line screen, 48 h
A498 = system: A498
CCRF-CEM = system: CCRF-CEM
DU-145 = system: DU-145
K562 = system: K562
KM12 = system: KM12
M14 = system: M14
MDA-MB-231 = system: MDA-MB-231
MDA-MB-435 = system: MDA-MB-435
MDA-N = system: MDA-N
NCI-H522 = system: NCI-H522
OVCAR-3 = system: OVCAR-3
SF-268 = system: SF-268
SF-295 = system: SF-295
SK-MEL-2 = system: SK-MEL-2
SNB-19 = system: SNB-19
SNB-75 = system: SNB-75
TK-10 = system: TK-10
U-251 = system: U-251
UO-31 = system: UO-31
SR = system: SR

COc1ccn(CC(=O)c2cc3ccccc3[nH]2)c(=O)n1
GI50 (A498): > 100 µM (inactive) | GI50 (CCRF-CEM): > 100 µM (inactive) | GI50 (DU-145): > 100 µM (inactive) | GI50 (K562): > 100 µM (inactive) | GI50 (KM12): > 100 µM (inactive) | GI50 (M14): > 100 µM (inactive) | GI50 (MDA-MB-231): > 100 µM (inactive) | GI50 (MDA-MB-435): > 100 µM (inactive) | GI50 (MDA-N): > 100 µM (inactive) | GI50 (NCI-H522): > 100 µM (inactive) | GI50 (OVCAR-3): > 100 µM (inactive) | GI50 (SF-268): > 100 µM (inactive) | GI50 (SF-295): > 100 µM (inactive) | GI50 (SK-MEL-2): > 100 µM (inactive) | GI50 (SNB-19): > 100 µM (inactive) | GI50 (SNB-75): > 100 µM (inactive) | GI50 (TK-10): > 100 µM (inactive) | GI50 (U-251): > 100 µM (inactive) | GI50 (UO-31): > 100 µM (inactive)

COC(=O)c1ccccc1/C=C1\Cc2c(C)cc(C)cc2C1=O
GI50 (A498): > 100 µM (inactive) | GI50 (CCRF-CEM): > 100 µM (inactive) | GI50 (K562): > 100 µM (inactive) | GI50 (KM12): > 100 µM (inactive) | GI50 (M14): > 100 µM (inactive) | GI50 (MDA-MB-231): > 100 µM (inactive) | GI50 (MDA-N): > 100 µM (inactive) | GI50 (NCI-H522): > 100 µM (inactive) | GI50 (OVCAR-3): > 100 µM (inactive) | GI50 (SF-268): > 100 µM (inactive) | GI50 (SF-295): > 100 µM (inactive) | GI50 (SK-MEL-2): > 100 µM (inactive) | GI50 (SNB-19): > 100 µM (inactive) | GI50 (SNB-75): > 100 µM (inactive) | GI50 (SR): > 100 µM (inactive) | GI50 (TK-10): > 100 µM (inactive) | GI50 (U-251): > 100 µM (inactive) | GI50 (UO-31): > 100 µM (inactive)

CCN(CCN(CC)C(=O)NC)C(=O)NC
GI50 (A498): > 100 µM (inactive) | GI50 (CCRF-CEM): > 100 µM (inactive) | GI50 (DU-145): > 100 µM (inactive) | GI50 (K562): > 100 µM (inactive) | GI50 (M14): > 100 µM (inactive) | GI50 (MDA-MB-231): > 100 µM (inactive) | GI50 (MDA-N): > 100 µM (inactive) | GI50 (NCI-H522): > 100 µM (inactive) | GI50 (SF-268): > 100 µM (inactive) | GI50 (SF-295): > 100 µM (inactive) | GI50 (SK-MEL-2): > 100 µM (inactive) | GI50 (SNB-19): > 100 µM (inactive) | GI50 (SNB-75): > 100 µM (inactive) | GI50 (SR): > 100 µM (inactive) | GI50 (TK-10): > 100 µM (inactive) | GI50 (U-251): > 100 µM (inactive) | GI50 (UO-31): > 100 µM (inactive)

Cc1cccc(Nc2cn(COCc3ccccc3)c(=O)[nH]c2=O)c1
GI50 (A498): > 100 µM (inactive) | GI50 (CCRF-CEM): > 100 µM (inactive) | GI50 (DU-145): > 100 µM (inactive) | GI50 (K562): > 100 µM (inactive) | GI50 (KM12): > 100 µM (inactive) | GI50 (M14): > 100 µM (inactive) | GI50 (MDA-MB-435): > 100 µM (inactive) | GI50 (MDA-N): > 100 µM (inactive) | GI50 (NCI-H522): 10.2 µM (inactive) | GI50 (OVCAR-3): > 100 µM (inactive) | GI50 (SF-268): 50 µM (inactive) | GI50 (SF-295): 72.1 µM (inactive) | GI50 (SNB-19): > 100 µM (inactive) | GI50 (SR): > 100 µM (inactive) | GI50 (U-251): > 100 µM (inactive) | GI50 (UO-31): > 100 µM (inactive)

CCCCCCCCCCCCC(O)C1CCC(C(O)CCCCC(O)CCCCCC2CC(CC(C)=O)C(=O)O2)O1 (stereo unspecified)
GI50 (A498): 4.52 µM (inactive) | GI50 (CCRF-CEM): 1.43 µM (inactive) | GI50 (DU-145): 3.86 µM (inactive) | GI50 (K562): 0.0186 µM (active) | GI50 (KM12): 1.63 µM (inactive) | GI50 (M14): 7.29 µM (inactive) | GI50 (MDA-MB-231): 2.54 µM (inactive) | GI50 (MDA-N): 1.6 µM (inactive) | GI50 (NCI-H522): 4.15 µM (inactive) | GI50 (OVCAR-3): 2.09 µM (inactive) | GI50 (SF-268): 3.33 µM (inactive) | GI50 (SF-295): 0.133 µM (active) | GI50 (SK-MEL-2): 4.95 µM (inactive) | GI50 (SNB-19): 2.33 µM (inactive) | GI50 (SNB-75): 3.72 µM (inactive) | GI50 (SR): 1.34 µM (inactive) | GI50 (TK-10): 4.99 µM (inactive) | GI50 (U-251): 3.11 µM (inactive) | GI50 (UO-31): 2.27 µM (inactive)

CCCCCCCCCC[C@@H](O)[C@H]1CC[C@@H]([C@H]2CC[C@H]([C@H](O)CCCCCCCCCC[C@@H]3CC(CC(C)=O)C(=O)O3)O2)O1 (stereo partly specified)
GI50 (A498): 38 µM (inactive) | GI50 (CCRF-CEM): 12.9 µM (inactive) | GI50 (DU-145): 9.27 µM (inactive) | GI50 (K562): 1.84 µM (inactive) | GI50 (KM12): 2.52 µM (inactive) | GI50 (M14): 6.43 µM (inactive) | GI50 (MDA-MB-231): 3.64 µM (inactive) | GI50 (MDA-MB-435): 32.4 µM (inactive) | GI50 (NCI-H522): 12.8 µM (inactive) | GI50 (OVCAR-3): 3.75 µM (inactive) | GI50 (SF-268): 2.1 µM (inactive) | GI50 (SF-295): 1.77 µM (inactive) | GI50 (SK-MEL-2): 4.94 µM (inactive) | GI50 (SNB-19): 2.9 µM (inactive) | GI50 (SNB-75): 1.42 µM (inactive) | GI50 (SR): 0.59 µM (active) | GI50 (TK-10): 4.73 µM (inactive) | GI50 (U-251): 2.65 µM (inactive) | GI50 (UO-31): 2.49 µM (inactive)

O=c1c(O)c(-c2ccc(O)cc2O)oc2cc(O)cc(O)c12 [MORIN]
GI50 (CCRF-CEM): > 100 µM (inactive) | GI50 (DU-145): > 100 µM (inactive) | GI50 (K562): > 100 µM (inactive) | GI50 (KM12): > 100 µM (inactive) | GI50 (M14): > 100 µM (inactive) | GI50 (MDA-MB-231): > 100 µM (inactive) | GI50 (MDA-MB-435): > 100 µM (inactive) | GI50 (MDA-N): > 100 µM (inactive) | GI50 (NCI-H522): > 10 µM (inactive) | GI50 (OVCAR-3): > 100 µM (inactive) | GI50 (SF-268): > 100 µM (inactive) | GI50 (SF-295): > 100 µM (inactive) | GI50 (SK-MEL-2): > 100 µM (inactive) | GI50 (SNB-19): > 100 µM (inactive) | GI50 (SNB-75): > 100 µM (inactive) | GI50 (TK-10): 33.4 µM (inactive) | GI50 (U-251): > 100 µM (inactive) | GI50 (UO-31): > 100 µM (inactive)
